Data as given in patent US9255295B2, “Method for evaluating the sensitizing potential of a test compound” (IMMUNOSEARCH, priority 2010, dated 2016).

Tests used:
[1] = system: genes specific for sensitization (BRAK, CTSS, DAPK2, FABP4, HSP27, IL18, HSP90, IL1R2, TPSAB1, CXCR1, DEFB1, DHFR, EHF, IVL, KRT4, MELANA, NGAL, PDZK1IP1, PI3 …); assay: Expression of the other (non-ARE) sensitization-specific genes in EPISKIN reconstructed skin (quantitative RT-PCR); assay type: cell-based, human
[2] = system: ARE gene family (AKR1B10, AKR1C1, AKR1C2, CYP1B1, FTH1P, FTL, G6PD, GCLM, NQO2, SLC7A11, TXNRD1, UGT1A1, UGT1A9, YWHAZ, CD36, CYP1A1, GCLC, HMOX1, NQO1, PSME2 …)
[3] = system: EPISKIN model
From the text: (§1) “Sensitizing power” means the ability of a given compound to induce a sensitization reaction according to the concentration of said compound. Sensitizing power is dependent on the quantity of substance necessary to induce sensitization. Thus, the lower the sensitizing quantity necessary to induce a sensitizing response, the stronger the sensitizer is, and vice versa, the higher the sensitizing quantity necessary to induce a sensitizing response, the weaker the sensitizer is.
(§2) Thus, steps 1) and 2) will be done for each of the dilutions.

[4] = system: EPISKIN model; assay: Sensitizing power: sensitizing potential retested at successive dilutions in the EPISKIN model
From the text: as §1, §2

CC(O)C(=O)O (stereo not drawn) [Ac Lactique]
SENS >1.3 (number of genes) [1]: 1
AHR NUMBER OF GENES grade [2]: 0 (key: If the expression is greater than 1.3 compared to the control, a grade of 11s given; if this expression is lower, the grade is 0)
AHR expression [2]: 0.8
AKR1B10 NUMBER OF GENES grade [2]: 0 (key: If the expression is greater than 1.3 compared to the control, a grade of 11s given; if this expression is lower, the grade is 0)
AKR1C1 NUMBER OF GENES grade [2]: 0 (key: If the expression is greater than 1.3 compared to the control, a grade of 11s given; if this expression is lower, the grade is 0)
AKR1C2 NUMBER OF GENES grade [2]: 0 (key: If the expression is greater than 1.3 compared to the control, a grade of 11s given; if this expression is lower, the grade is 0)
ARE >1.3 (number of genes) [2]: 0
CYP1B1 NUMBER OF GENES grade [2]: 0 (key: If the expression is greater than 1.3 compared to the control, a grade of 11s given; if this expression is lower, the grade is 0)
FTH1P NUMBER OF GENES grade [2]: 0 (key: If the expression is greater than 1.3 compared to the control, a grade of 11s given; if this expression is lower, the grade is 0)
FTL NUMBER OF GENES grade [2]: 0 (key: If the expression is greater than 1.3 compared to the control, a grade of 11s given; if this expression is lower, the grade is 0)
GCLC NUMBER OF GENES grade [2]: 0 (key: If the expression is greater than 1.3 compared to the control, a grade of 11s given; if this expression is lower, the grade is 0)
GCLM NUMBER OF GENES grade [2]: 0 (key: If the expression is greater than 1.3 compared to the control, a grade of 11s given; if this expression is lower, the grade is 0)
GCLM expression [2]: 1.1
HMOX1 NUMBER OF GENES grade [2]: 0 (key: If the expression is greater than 1.3 compared to the control, a grade of 11s given; if this expression is lower, the grade is 0)
NQO1 NUMBER OF GENES grade [2]: 0 (key: If the expression is greater than 1.3 compared to the control, a grade of 11s given; if this expression is lower, the grade is 0)
NQO2 NUMBER OF GENES grade [2]: 0 (key: If the expression is greater than 1.3 compared to the control, a grade of 11s given; if this expression is lower, the grade is 0)
NQO2 expression [2]: 1.2
SLC7A11 NUMBER OF GENES grade [2]: 0 (key: If the expression is greater than 1.3 compared to the control, a grade of 11s given; if this expression is lower, the grade is 0)
SLC7A11 expression [2]: 1.0
TOTAL ARE (number of genes) [2]: 0
TXNRD1 NUMBER OF GENES grade [2]: 0 (key: If the expression is greater than 1.3 compared to the control, a grade of 11s given; if this expression is lower, the grade is 0)
UGT1A1 NUMBER OF GENES grade [2]: 0 (key: If the expression is greater than 1.3 compared to the control, a grade of 11s given; if this expression is lower, the grade is 0)
UGT1A1 expression [2]: 1.3
UGT1A9 NUMBER OF GENES grade [2]: 0 (key: If the expression is greater than 1.3 compared to the control, a grade of 11s given; if this expression is lower, the grade is 0)
UGT1A9 expression [2]: 0.8
sensitizing potential (conclusion) [3]: Non-sensitizing
NUMBER OF GENES overexpressed, sum column 8 [4]: 0
